US12319710B2, “Catecholamine prodrugs for use in the treatment of Parkinson's diseases” (H. Lundbeck A/S, priority 2019, dated 2025)

Assays:
[1] = man, oral dosing; cited from earlier work
[2] = PK experiments in rats: plasma compound (I) after oral dosing of prodrug; assay type: in vivo, Wistar rats; details: Wistar rats, oral
Procedure: Plasma was placed on water-ice following collection. Final storage at approximately −70° C.
Mobile phase B: Acetonitrile. […] Flow rate 0.5 mL/min.
The rats had unrestricted access to the diet.
Mobile phase B: Acetonitrile+0.2% formic acid. […] Flow rate 0.3 mL/min.
Dosing and blood sampling: Han Wistar rats were supplied by Envigo, UK. […] The rats received a standard laboratory diet Teklad 2014C. The rats had unrestricted access to the diet. […] Rats were given […] (Ic), 487 ag/kg compound (7), 487 ag/kg Compound (4), 674 ag/kg compound (9), 359 ag/kg A6 and 551 ag/kg A2.

human 5-HT2B receptor = biological target: T1, human 5-HT2B receptor (Homo sapiens, UniProt P41595); assay: 5-HT2B agonist activity assay (IP1 production, HTRF, transfected CHO cells); assay type: cell-based
T1 construct: host or cells: CHO cells (membrane homogenates)
Procedure: Evaluation of the agonist activity of compounds (I), (Ia) and (Ib) at the human 5-HT2B receptor was performed by Eurofins/Cerep (France) measuring the compound effects on inositol monophosphate (IP1) production using the HTRF detection method. Briefly, the human 5-HT2B receptor was expressed in transfected CHO cells. The cells were suspended in a buffer containing 10 mM Hepes/NaOH (pH 7.4), 4.2 mM KCl, 146 mM NaCl, 1 mM CaCl2, 0.5 mM MgCl2, 5.5 mM glucose and 50 mM LiCl, then distributed in microplates at a density of 4100 cells/well and incubated for 30 minutes at 37° C. in the presence of buffer (basal control), test compound or reference agonist. For stimulated control measurement, separate assay wells contained 1 μM 5-HT. Following incubation, the cells were lysed and the fluorescence acceptor (fluorophen D2-labeled IP1) and fluorescence donor (anti-IP1 antibody labeled with europium cryptate) were added. After 60 minutes at room temperature, the fluorescence transfer was measured at lambda(Ex) 337 nm and lambda(Em) 620 and 665 nm using a microplate reader (Rubystar, BMG). The IP1 concentration was determined by dividing the signal measured at 665 nm by that measured at 620 nm (ratio). The results were expressed as a percent of the control response to 1 μM 5-HT. […]

T1 sequence (P41595 whole entry): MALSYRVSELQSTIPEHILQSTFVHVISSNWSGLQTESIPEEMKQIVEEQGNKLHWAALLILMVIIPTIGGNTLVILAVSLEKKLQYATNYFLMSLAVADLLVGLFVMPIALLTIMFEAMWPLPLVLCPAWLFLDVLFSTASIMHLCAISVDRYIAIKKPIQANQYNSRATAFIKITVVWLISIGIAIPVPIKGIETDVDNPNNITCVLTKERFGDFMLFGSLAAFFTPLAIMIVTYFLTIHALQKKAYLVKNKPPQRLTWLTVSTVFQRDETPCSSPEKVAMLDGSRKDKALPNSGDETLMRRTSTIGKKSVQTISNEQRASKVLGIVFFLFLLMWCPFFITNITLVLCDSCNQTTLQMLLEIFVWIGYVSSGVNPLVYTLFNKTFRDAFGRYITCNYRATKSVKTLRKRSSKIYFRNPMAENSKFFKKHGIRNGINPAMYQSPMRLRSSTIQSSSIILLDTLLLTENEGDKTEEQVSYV

Structure (SMILES) | oral bioavailability [1] [%] | plasma concentrations of compound (I) after oral dosing (in words) [2] | 5-HT2B % @ 30 uM (human 5-HT2B receptor; 30 uM, percent of control response to 1 μM 5-HT) [%] | 5-HT2B receptor agonism (in words) (human 5-HT2B receptor)
CCCc1cc2c(s1)CN[C@@H]1CCc3cc(OC(C)=O)c(OC(C)=O)cc3[C@@H]21 [Adrogolide] | ~4 |  |  | 
CCCN1CCC[C@@H]2CC3=C(CCCC3=O)C[C@H]21 [(Ia), reference compound] |  | early and high peak plasma concentrations of compound (I) | 58 | 
CCCN1CCC[C@@H]2Cc3c(ccc4c3OCO4)C[C@H]21 [(Ib), (6aR,10aR)-7-propyl-6,6a,7,8,9,10,10a,11-octahydro-[1,3]dioxolo[4′,5′:5,6]benzo[1,2-g]quinoline, reference compound] |  | early and high peak plasma concentrations of compound (I) |  | agonist of the 5-HT2B receptor
